# Results taken from patent publication US9266879B2, “Naphthridine derivatives as PI3K inhibitors for the treatment of cancer and immune-inflammatory disease” (Karus Therapeutic Limited, priority 2010, dated 2016).
# Like-named read-outs stand apart in the source and are kept apart here.
# Key:
# PI3K-p110β = PI3K-p110β (Homo sapiens, UniProt P42338); test: Biochemical PI3K-p110β inhibition
# MCF7 Breast Tumour Cell = test: MCF7 breast tumour cell growth inhibition; format: cell-based; details: Homo sapiens
# PI3K-p110α = PI3K-p110α (Homo sapiens, UniProt P42336); test: PI3K-p110α inhibition; format: biochemical
# PI3K-p110α, sequence (P42336 whole entry): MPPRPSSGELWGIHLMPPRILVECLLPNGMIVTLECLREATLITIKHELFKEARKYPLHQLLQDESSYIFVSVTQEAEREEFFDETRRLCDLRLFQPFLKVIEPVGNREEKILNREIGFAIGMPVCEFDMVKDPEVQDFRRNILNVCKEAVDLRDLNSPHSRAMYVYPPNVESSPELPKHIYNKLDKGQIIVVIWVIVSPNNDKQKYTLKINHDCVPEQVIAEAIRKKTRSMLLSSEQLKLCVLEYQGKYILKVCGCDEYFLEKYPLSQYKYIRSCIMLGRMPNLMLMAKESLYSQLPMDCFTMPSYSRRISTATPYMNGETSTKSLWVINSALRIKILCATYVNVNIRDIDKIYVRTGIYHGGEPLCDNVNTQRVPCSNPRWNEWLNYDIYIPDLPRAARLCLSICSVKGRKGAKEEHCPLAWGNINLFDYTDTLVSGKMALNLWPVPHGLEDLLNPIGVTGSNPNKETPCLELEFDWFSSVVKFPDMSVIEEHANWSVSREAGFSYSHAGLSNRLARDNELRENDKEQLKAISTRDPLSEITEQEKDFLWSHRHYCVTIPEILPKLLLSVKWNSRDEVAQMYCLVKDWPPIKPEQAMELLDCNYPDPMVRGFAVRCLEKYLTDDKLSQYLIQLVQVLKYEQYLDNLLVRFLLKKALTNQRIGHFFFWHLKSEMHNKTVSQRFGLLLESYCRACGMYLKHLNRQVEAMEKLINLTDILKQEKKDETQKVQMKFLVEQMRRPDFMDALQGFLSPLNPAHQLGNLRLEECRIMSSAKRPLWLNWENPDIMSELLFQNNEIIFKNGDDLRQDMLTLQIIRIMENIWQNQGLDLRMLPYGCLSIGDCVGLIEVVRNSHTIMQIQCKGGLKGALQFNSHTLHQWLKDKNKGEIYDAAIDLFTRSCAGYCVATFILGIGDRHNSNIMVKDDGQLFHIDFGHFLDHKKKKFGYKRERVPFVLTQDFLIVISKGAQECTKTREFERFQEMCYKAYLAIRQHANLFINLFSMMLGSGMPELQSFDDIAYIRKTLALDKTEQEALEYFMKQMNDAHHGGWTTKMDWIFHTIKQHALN
# PI3K-p110α, sequence (P27986 whole entry partner): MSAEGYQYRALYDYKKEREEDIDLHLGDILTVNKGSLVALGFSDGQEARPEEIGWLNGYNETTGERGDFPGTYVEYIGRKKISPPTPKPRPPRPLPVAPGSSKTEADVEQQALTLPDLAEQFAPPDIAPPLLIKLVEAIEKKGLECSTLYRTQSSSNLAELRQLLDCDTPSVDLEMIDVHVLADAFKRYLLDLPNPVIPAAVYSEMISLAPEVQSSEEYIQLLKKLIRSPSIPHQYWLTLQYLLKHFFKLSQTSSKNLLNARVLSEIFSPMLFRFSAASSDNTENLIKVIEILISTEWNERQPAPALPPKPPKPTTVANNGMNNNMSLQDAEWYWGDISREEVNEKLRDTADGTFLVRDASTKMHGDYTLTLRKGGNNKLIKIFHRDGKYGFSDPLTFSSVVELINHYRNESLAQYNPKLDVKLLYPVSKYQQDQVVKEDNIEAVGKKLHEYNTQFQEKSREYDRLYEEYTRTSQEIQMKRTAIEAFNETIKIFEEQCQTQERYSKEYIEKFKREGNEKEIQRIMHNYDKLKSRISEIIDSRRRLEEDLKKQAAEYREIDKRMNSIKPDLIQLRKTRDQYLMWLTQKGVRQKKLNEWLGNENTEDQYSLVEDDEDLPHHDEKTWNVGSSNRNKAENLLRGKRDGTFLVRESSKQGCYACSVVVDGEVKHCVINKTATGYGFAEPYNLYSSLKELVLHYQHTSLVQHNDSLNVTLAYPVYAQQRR
# PI3K-p110δ = PI3K-p110δ (Homo sapiens, UniProt O00329); test: PI3K-p110δ inhibition; format: biochemical
# PI3K-p110δ, sequence (O00329 whole entry): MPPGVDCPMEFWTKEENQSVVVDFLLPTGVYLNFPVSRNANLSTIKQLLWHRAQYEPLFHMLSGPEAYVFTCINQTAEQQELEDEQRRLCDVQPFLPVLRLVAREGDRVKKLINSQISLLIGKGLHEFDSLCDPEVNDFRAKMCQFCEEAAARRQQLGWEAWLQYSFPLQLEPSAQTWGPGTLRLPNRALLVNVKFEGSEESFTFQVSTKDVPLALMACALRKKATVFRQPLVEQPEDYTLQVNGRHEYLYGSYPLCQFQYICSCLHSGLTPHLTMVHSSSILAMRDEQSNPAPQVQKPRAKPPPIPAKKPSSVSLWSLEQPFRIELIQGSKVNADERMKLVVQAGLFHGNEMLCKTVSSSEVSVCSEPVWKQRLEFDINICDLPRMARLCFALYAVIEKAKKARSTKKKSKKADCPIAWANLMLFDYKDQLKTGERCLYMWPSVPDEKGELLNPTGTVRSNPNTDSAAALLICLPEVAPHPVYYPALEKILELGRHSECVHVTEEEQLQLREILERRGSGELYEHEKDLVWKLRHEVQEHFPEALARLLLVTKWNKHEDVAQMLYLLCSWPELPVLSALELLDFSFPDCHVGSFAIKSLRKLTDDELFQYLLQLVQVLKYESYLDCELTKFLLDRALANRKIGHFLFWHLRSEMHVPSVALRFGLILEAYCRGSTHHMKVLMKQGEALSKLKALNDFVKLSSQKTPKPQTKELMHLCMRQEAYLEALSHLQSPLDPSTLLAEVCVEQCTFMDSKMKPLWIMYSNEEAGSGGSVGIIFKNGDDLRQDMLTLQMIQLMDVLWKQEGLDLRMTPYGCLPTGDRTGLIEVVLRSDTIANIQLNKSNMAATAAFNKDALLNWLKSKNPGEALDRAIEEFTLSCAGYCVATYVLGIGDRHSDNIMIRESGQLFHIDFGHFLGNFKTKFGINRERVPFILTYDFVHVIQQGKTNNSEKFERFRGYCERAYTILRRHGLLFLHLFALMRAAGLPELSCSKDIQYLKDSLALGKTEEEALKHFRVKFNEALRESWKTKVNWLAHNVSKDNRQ
# PI3K-p110δ, sequence (P27986 whole entry partner): as the sequence (P27986 whole entry partner) above
# PI3K-p110γ = PI3K-p110γ (Homo sapiens, UniProt P48736); test: PI3K-p110γ inhibition; format: biochemical
# PI3K-p110γ, sequence (P48736 whole entry): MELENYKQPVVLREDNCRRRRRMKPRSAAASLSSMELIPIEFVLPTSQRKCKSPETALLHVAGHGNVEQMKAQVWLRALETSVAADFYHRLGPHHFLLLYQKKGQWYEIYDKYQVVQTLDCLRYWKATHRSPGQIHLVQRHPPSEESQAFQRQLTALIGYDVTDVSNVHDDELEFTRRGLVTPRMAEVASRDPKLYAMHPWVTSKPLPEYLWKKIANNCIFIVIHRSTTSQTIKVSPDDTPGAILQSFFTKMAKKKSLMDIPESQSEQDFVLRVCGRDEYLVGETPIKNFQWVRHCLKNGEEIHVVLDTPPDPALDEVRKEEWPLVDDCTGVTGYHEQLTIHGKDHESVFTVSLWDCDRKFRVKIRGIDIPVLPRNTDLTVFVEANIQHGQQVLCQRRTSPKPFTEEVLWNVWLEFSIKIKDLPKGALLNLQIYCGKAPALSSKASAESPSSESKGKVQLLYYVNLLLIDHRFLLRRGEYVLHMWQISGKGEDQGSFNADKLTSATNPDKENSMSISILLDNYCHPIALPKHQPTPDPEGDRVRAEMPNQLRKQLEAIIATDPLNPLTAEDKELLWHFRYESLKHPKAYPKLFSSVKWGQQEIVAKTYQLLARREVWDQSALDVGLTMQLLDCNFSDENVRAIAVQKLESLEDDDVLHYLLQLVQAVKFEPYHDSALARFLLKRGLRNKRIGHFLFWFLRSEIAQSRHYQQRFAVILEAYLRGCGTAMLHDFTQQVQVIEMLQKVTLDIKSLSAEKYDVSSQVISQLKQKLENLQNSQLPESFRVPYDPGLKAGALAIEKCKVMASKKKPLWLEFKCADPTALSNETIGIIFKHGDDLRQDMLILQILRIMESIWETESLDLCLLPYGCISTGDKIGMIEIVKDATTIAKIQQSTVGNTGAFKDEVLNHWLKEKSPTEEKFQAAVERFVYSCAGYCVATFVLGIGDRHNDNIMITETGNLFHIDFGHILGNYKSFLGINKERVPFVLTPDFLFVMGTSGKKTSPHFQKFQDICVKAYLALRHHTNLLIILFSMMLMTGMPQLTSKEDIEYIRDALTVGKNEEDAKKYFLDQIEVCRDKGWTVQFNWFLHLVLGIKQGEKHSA
# [1] = read-out: Biochemical IC50, PI3K-p110β
# PI3K-p110β, sequence (P42338 whole entry): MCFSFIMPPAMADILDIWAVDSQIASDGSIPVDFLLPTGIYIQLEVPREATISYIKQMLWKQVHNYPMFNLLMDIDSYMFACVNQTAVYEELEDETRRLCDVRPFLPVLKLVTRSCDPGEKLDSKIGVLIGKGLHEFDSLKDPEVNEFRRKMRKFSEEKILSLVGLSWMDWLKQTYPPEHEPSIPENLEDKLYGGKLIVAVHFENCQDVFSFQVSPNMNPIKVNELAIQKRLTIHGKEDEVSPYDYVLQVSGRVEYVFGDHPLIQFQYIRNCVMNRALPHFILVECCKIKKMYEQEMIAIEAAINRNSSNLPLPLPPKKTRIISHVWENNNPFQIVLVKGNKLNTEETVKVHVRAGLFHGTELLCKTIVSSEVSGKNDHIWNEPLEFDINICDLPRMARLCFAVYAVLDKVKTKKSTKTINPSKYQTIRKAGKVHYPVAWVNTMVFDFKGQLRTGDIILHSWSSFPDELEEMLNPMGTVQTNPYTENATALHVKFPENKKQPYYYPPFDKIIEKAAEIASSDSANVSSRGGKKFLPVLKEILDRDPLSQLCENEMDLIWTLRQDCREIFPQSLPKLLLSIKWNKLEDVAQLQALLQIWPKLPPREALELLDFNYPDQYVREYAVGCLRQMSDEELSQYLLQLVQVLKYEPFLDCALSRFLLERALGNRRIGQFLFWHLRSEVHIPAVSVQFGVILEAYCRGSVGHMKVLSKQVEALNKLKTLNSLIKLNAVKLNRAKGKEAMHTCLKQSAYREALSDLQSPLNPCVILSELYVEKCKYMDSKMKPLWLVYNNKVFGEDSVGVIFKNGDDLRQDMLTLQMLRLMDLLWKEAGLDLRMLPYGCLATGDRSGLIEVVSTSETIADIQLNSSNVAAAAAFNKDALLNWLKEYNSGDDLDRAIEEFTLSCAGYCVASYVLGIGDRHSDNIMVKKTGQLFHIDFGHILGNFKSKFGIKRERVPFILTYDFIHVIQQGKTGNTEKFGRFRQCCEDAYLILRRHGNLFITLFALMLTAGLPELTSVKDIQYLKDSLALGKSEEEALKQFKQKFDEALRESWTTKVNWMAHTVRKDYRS
# PI3K-p110β, sequence (P27986 whole entry partner): as the sequence (P27986 whole entry partner) above
Structure (SMILES),IC50 (PI3K-p110β; [1]),IC50 (MCF7 Breast Tumour Cell),"IC50 (PI3K-p110β; isoform panel, second part of table, read-out: IC50 PI3K-p110β)",IC50 (PI3K-p110α),IC50 (PI3K-p110δ),IC50 (PI3K-p110γ)
"Nc1ccc(-c2cc3ncccc3c(N3CCOCC3)n2)c(Cl)c1 [F, 3-Chloro-4-(5-morpholin-4-yl-[1,6]naphthyridin-7-yl)-phenylamine]",3.7 µM,10.9 µM,,,,
"Nc1ccc(-c2cc3ncccc3c(N3CCOCC3)n2)cc1Cl [E, 2-Chloro-4-(5-morpholin-4-yl-[1,6]naphthyridin-7-yl)-phenylamine]",0.69 µM,6.06 µM,,,,
"c1cc(-c2cc3ncccc3c(N3CCOCC3)n2)c2cc[nH]c2c1 [G, 7-(1H-Indol-4-yl)-5-morpholin-4-yl-1,6-naphthyridine]",,,3.4 µM,> 10 µM,0.26 µM,> 10 µM
